Common to all, as to type: cell-based
For assay [1], the system named is NOS3 (Nitric oxide synthase, endothelial). The assay is described as follows: Gene expression in four cat cell lines treated with or without lipoic acid. As to conditions: Table 5; four cat cell lines with vs without lipoic acid; p<0.05. As for the experimental part: (§1) The gene expression data from four cat cell lines treated with lipoic acid was analyzed.
Assay [2] relates to PRKAR1A (cAMP-dependent protein kinase type I-alpha regulatory subunit). Described as above. The following applies: Table 5; four cat cell lines with vs without lipoic acid; p<0.05. The protocol: as §1
The subject of assay [3] is PLA2G2F (Group IIFA2 secretory phospholipase precursor). The description is as above. As to conditions: Table 5; four cat cell lines with vs without lipoic acid; p<0.05. The protocol:
as §1

The subject of assay [4] is RELA (Transcription factor p65). The assay is described as above. As to conditions: Table 5; four cat cell lines with vs without lipoic acid; p<0.05. As for the experimental part:
as §1

The subject of assay [5] is MAP2K1 (Dual specificity mitogen-activated protein kinase 1). The description is as above. As to conditions: Table 4; four cat cell lines with vs without lipoic acid; p<0.05. As for the experimental part:
as §1

The subject of assay [6] is MAPK1 (Mitogen-activated protein kinase 1). The assay is described as above. As to conditions: four cat cell lines with vs without lipoic acid, p<0.05. As for the experimental part:
as §1

In assay [7] the test system is LTC4S (Leukotriene C4 synthase). The assay is described as above. As to conditions: Table 4; four cat cell lines with vs without lipoic acid; p<0.05. As for the experimental part: as §1
The subject of assay [8] is REL (C-Rel proto-oncogene protein). The description is as above. As to conditions: Table 5; four cat cell lines with vs without lipoic acid; p<0.05. The protocol: as §1
Assay [9] deals with ADCY2 (Adenylate cyclase type 2). The description is as above. As to conditions: Table 5; four cat cell lines with vs without lipoic acid; p<0.05. As for the experimental part: as §1
For assay [10], the system named is VCAM1 (Vascular cell adhesion protein 1 precursor). The assay is described as above. The following applies: Table 5; four cat cell lines with vs without lipoic acid; p<0.05. The protocol: as §1
In assay [11] the test system is TNF (Tumor necrosis factor precursor). The description is as above. The following applies: Table 5; four cat cell lines with vs without lipoic acid; p<0.05. As for the experimental part: as §1
Assay [12] deals with PNPLA8 (Calcium-independent phospholipase A2-gamma). The assay is described as above. The following applies: Table 5; four cat cell lines with vs without lipoic acid; p<0.05. The protocol: as §1
For assay [13], the system named is ADCY7 (Adenylate cyclase type 7). The assay is described as above. As to conditions: Table 5; four cat cell lines with vs without lipoic acid; p<0.05. As for the experimental part: as §1
Assay [14] relates to histamine release and signaling pathways (gene networks). The assay is described as follows: Gene network enrichment analysis of cat cell lines treated with lipoic acid. The following applies: four cat cell lines treated with lipoic acid. As for the experimental part: as §1
The subject of assay [15] is GAB2 (GRB2-associated-binding protein 2). The assay is described as follows: Gene expression in four cat cell lines treated with or without lipoic acid (paired t test, GeneGo enrichment). The following applies: Table 4; four cat cell lines with vs without lipoic acid; p<0.05. The protocol: as §1

One compound from patent US9844533B2, “Antioxidant-containing food composition for use in inhibiting histamine pathways in companion animals” (Hill's Pet Nutrition, Inc., priority 2008, dated 2017) can be followed below.

SMILES strings stand for the structures.

As to `O=C(O)CCCCC1CCSS1` (stereo not drawn) [lipoic acid, alpha-lipoic acid], in assay [1], the “Signal (NOS3 gene expression change)” value is −0.5503. In addition, the “Signal (PRKAR1A gene expression change)” value in [2] was −0.184. In addition, the “Signal (PLA2G2F gene expression change)” value in assay [3] amounted to 1.061. Also, in assay [4], the “Signal (RELA gene expression change)” value was −0.429. In assay [5], the “Signal (MAP2K1 gene expression change)” value is −0.1574. The “Signal (MAPK1 gene expression change)” value in assay [6] (Table 4) and in assay [6] (Table 5) was −0.3117 throughout. For the same compound, the “Signal (LTC4S gene expression change)” value in assay [7] is given as −0.4586. The “Signal (REL gene expression change)” value in assay [8] was −0.4264. In assay [9], the “Signal (ADCY2 gene expression change)” value stood at 0.3925. Also, in assay [10], the “Signal (VCAM1 gene expression change)” value was −0.7819|. Besides, the “Signal (TNF gene expression change)” value in assay [11] is given as 0.1797. Further, the “Signal (PNPLA8 gene expression change)” value in assay [12] was −0.2652. Moreover, the “Signal (ADCY7 gene expression change)” value in [13] amounted to 0.3988. Besides, the “Regulation of key genes in histamine and IgE signaling networks” value in assay [14] was “down regulated”. Moreover, the “Signal (GAB2 gene expression change)” value in assay [15] is on record as −0.8668.
